Reference: US10280169B2, “Biaryl bruton's tyrosine kinase inhibitors” (BIOGEN MA INC., priority 2013, dated 2019)

Columns and labels:
pBTK = target: T1, pBTK (Homo sapiens, UniProt Q06187); experiment: In vitro PD assay in whole blood (pBTK assay); type: cell-based; conditions: 30 min at 37° C.
T1 construct: Heparinized venous blood was purchased from Bioreclamation, Inc. or SeraCare Life Sciences; tissue Bioreclamation, Inc. or SeraCare Life Sciences; host or cells: heparinized venous whole blood
T1 sequence (Q06187 whole entry): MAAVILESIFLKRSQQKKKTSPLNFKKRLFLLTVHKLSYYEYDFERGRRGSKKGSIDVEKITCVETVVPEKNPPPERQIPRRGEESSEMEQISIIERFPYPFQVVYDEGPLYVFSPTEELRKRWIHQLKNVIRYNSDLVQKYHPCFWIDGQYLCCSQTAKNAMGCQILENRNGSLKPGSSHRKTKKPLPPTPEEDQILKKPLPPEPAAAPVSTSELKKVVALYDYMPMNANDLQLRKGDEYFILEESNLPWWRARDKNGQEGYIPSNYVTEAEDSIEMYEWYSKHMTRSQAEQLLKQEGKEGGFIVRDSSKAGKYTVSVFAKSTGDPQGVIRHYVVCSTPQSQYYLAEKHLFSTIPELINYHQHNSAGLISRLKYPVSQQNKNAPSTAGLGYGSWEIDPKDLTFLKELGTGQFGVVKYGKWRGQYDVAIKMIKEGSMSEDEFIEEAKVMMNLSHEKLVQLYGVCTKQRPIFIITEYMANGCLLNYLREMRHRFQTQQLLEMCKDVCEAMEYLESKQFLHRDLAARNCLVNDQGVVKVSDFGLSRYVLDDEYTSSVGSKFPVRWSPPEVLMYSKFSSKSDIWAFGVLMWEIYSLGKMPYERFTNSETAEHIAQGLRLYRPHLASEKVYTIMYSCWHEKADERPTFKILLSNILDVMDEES
Procedure: Heparinized venous blood was purchased from Bioreclamation, Inc. or SeraCare Life Sciences and shipped overnight. Whole blood was aliquoted into 96-well plate and “spiked” with serial dilutions of test compound in DMSO or with DMSO without drug. The final concentration of DMSO in all wells was 0.1%. The plate was incubated at 37° C. for 30 min. Lysis buffer containing protease and phosphatase inhibitors was added to the drug-containing samples and one of the DMSO-only samples (+PPi, high control), while lysis buffer containing protease inhibitors was added to the other DMSO-only samples (−PPi, low control). All of the lysed whole blood samples were subjected to the total BTK capture and phosphotyrosine detection method described in Example 30. ECL values were graphed in Prism and a best-fit curve with restrictions on the maximum and minimum defined by the +PPi high and −PPi low controls was used to estimate the test compound concentration that results in 50% inhibition of ECL signal by interpolation.
In some instances where a compound tested has activity “D”, other structurally similar compounds beyond the measurable limits of the assay are not included in Table 2.

BTK = target: T2, BTK (Homo sapiens, UniProt Q06187); experiment: In vitro BTK kinase assay: BTK-POLYGAT-LS assay; type: biochemical; conditions: 10 uM ATP, read-out: IC50 (10 uMATP)
T2 construct: purchased Upstate 14-552
T2 sequence (Q06187 whole entry): as above

IC50 (pBTK) [µM]	IC50 (BTK) [µM]	SMILES
0.5 to 1.5	< 0.01	Cc1cc(-c2ncnc3nc(N4CCC(N(C)C)CC4)[nH]c23)ccc1CNC(=O)c1cnc(C(C)(C)C)s1 [Example I-49, 2-(tert-butyl)-N-(4-(8-(4-(dimethylamino)piperidin-1-yl)-7H-purin-6-yl)-2-methylbenzyl)thiazole-5-carboxamide]
< 0.5	< 0.01	Cn1cc(-c2cc3c(-c4ccc5c(c4)CCCC5NC(=O)c4cnc(C(C)(C)C)s4)ncnc3[nH]2)cn1 (stereo not drawn) [Example I-34, 2-(tert-butyl)-N-(6-(6-(1-methyl-1H-pyrazol-4-yl)-7H-pyrrolo[2,3-d]pyrimidin-4-yl)-1,2,3,4-tetrahydronaphthalen-1-yl)thiazole-5-carboxamide]
< 0.5	< 0.01	Cc1cc(-c2ncnc3[nH]c(C4=CCN(C(=O)N(C)C)CC4)cc23)ccc1CNC(=O)c1cnc(C(C)(C)C)s1 [Example I-19, 2-(tert-butyl)-N-(4-(6-(1-(dimethylcarbamoyl)-1,2,3,6-tetrahydropyridin-4-yl)-7H-pyrrolo[2,3-d]pyrimidin-4-yl)-2-methylbenzyl)thiazole-5-carboxamide]
0.5 to 1.5	< 0.01	Cc1cc(-c2ncnc3cc(-c4cnn(C)c4)[nH]c23)ccc1C(CO)NC(=O)c1cnc(C(C)(C)C)s1 (stereo not drawn) [Example I-44, 2-(tert-butyl)-N-(2-hydroxy-1-(2-methyl-4-(6-(1-methyl-1H-pyrazol-4-yl)-5H-pyrrolo[3,2-d]pyrimidin-4-yl)phenyl)ethyl)thiazole-5-carboxamide]
0.5 to 1.5	< 0.01	Cc1cc(-c2ncnc3cc[nH]c23)ccc1CNC(=O)c1cnc(C(C)(C)C)s1 [Example I-115, 2-(tert-butyl)-N-(2-methyl-4-(5H-pyrrolo[3,2-d]pyrimidin-4-yl)benzyl)thiazole-5-carboxamide]
< 0.5	< 0.01	Cc1cc(-c2ncnc3nc(N4CCC(C(=O)O)CC4)[nH]c23)ccc1CNC(=O)c1cnc(C(C)(C)C)s1 [Example I-52, 1-(6-(4-((2-(tert-butyl)thiazole-5-carboxamido)methyl)-3-methylphenyl)-7H-purin-8-yl)piperidine-4-carboxylic acid]
< 0.5	< 0.01	Cc1cc(-c2ncnc3[nH]c(C4=CCS(=O)(=O)CC4)cc23)ccc1CNC(=O)c1cnc(C(C)(C)C)s1 [Example I-21, 2-(tert-butyl)-N-(4-(6-(1,1-dioxido-3,6-dihydro-2H-thiopyran-4-yl)-7H-pyrrolo[2,3-d]pyrimidin-4-yl)-2-methylbenzyl)thiazole-5-carboxamide]
1.5 to 10	< 0.01	Cc1cc(-c2ncnc3[nH]ccc23)ccc1CNC(=O)c1ccc(C(C)(C)C)cn1 [Example I-1, 5-(tert-butyl)-N-(2-methyl-4-(7H-pyrrolo[2,3-d]pyrimidin-4-yl)benzyl)picolinamide]
< 0.5	< 0.01	Cc1cc(-c2ncnc3cc(-c4cnn(C)c4)[nH]c23)ccc1C(C)NC(=O)c1cnc(C(C)(C)C)s1 (stereo not drawn) [Example I-46, 2-(tert-butyl)-N-(1-(2-methyl-4-(6-(1-methyl-1H-pyrazol-4-yl)-5H-pyrrolo[3,2-d]pyrimidin-4-yl)phenyl)ethyl)thiazole-5-carboxamide]
1.5 to 10	< 0.01	CC(C)(C)c1ncc(C(=O)NC(CO)c2ccc(-c3ncnc4[nH]c(C5=CCS(=O)(=O)CC5)cc34)cc2)s1 (stereo not drawn) [Example I-30, 2-(tert-butyl)-N-(1-(4-(6-(1,1-dioxido-3,6-dihydro-2H-thiopyran-4-yl)-7H-pyrrolo[2,3-d]pyrimidin-4-yl)phenyl)-2-hydroxyethyl)thiazole-5-carboxamide]
0.5 to 1.5	< 0.01	Cc1cc(-c2ncnc3cc(-c4cnn(C)c4)[nH]c23)ccc1CNC(=O)N1CC(OC(C)C)C1 [Example I-43, 3-isopropoxy-N-(2-methyl-4-(6-(1-methyl-1H-pyrazol-4-yl)-5H-pyrrolo[3,2-d]pyrimidin-4-yl)benzyl)azetidine-1-carboxamide]
1.5 to 10	0.01 to 0.099	Cc1cc(-c2ncnc3cc(-c4cnn(C)c4)[nH]c23)ccc1C(CO)NC(=O)c1cc2c(s1)CCOC2 (stereo not drawn) [Example I-45, N-(2-hydroxy-1-(2-methyl-4-(6-(1-methyl-1H-pyrazol-4-yl)-5H-pyrrolo[3,2-d]pyrimidin-4-yl)phenyl)ethyl)-6,7-dihydro-4H-thieno[3,2-c]pyran-2-carboxamide]
1.5 to 10	< 0.01	CC(C)(C)c1csc(C(=O)NC2CCCc3cc(-c4ncnc5[nH]ncc45)ccc32)n1 (stereo in doubt) [Example I-100, (R)—N-(6-(1H-pyrazolo[3,4-d]pyrimidin-4-yl)-1,2,3,4-tetrahydronaphthalen-1-yl)-4-(tert-butyl)thiazole-2-carboxamide]
< 0.5	< 0.01	Cc1cc(-c2ncnc3cc(-c4cnn(C)c4)[nH]c23)ccc1CNC(=O)c1ncc(C(C)(C)C)s1 [Example I-36]
< 0.5	< 0.01	Cc1cc(-c2ncnc3nc(N4CCN(C)CC4)[nH]c23)ccc1CNC(=O)c1cnc(C(C)(C)C)s1 [Example I-47, 2-(tert-butyl)-N-(2-methyl-4-(8-(4-methylpiperazin-1-yl)-7H-purin-6-yl)benzyl)thiazole-5-carboxamide]
1.5 to 10	< 0.01	Cc1cc(-c2ncnc3[nH]ncc23)ccc1CNC(=O)c1nc2c(s1)CCCC2 [Example I-119, 4,5,6,7-Tetrahydro-benzothiazole-2-carboxylic acid 2-methyl-4-(1H-pyrazolo[3,4-d]pyrimidin-4-yl)-benzylamide]
< 0.5	< 0.01	CCn1cc(-c2cc3ncnc(-c4ccc(CNC(=O)c5ncc(C(C)(C)C)s5)c(C)c4)c3[nH]2)cn1 [Example I-40, 5-(tert-butyl)-N-(4-(6-(1-ethyl-1H-pyrazol-4-yl)-5H-pyrrolo[3,2-d]pyrimidin-4-yl)-2-methylbenzyl)thiazole-2-carboxamide]
< 0.5	< 0.01	Cc1cc(-c2ncnc3cc(C4=CCN(C(=O)N(C)C)CC4)[nH]c23)ccc1CNC(=O)c1ncc(C(C)(C)C)s1 [Example I-18, 5-(tert-butyl)-N-(4-(6-(1-(dimethylcarbamoyl)-1,2,3,6-tetrahydropyridin-4-yl)-5H-pyrrolo[3,2-d]pyrimidin-4-yl)-2-methylbenzyl)thiazole-2-carboxamide]
1.5 to 10	< 0.01	Cc1cc(-c2ncnc3[nH]c(-c4cnn(C)c4)cc23)ccc1C(C)NC(=O)c1cc2c(s1)CCOC2 (stereo not drawn) [Example I-113, N-(1-(2-methyl-4-(6-(1-methyl-1H-pyrazol-4-yl)-7H-pyrrolo[2,3-d]pyrimidin-4-yl)phenyl)ethyl)-6,7-dihydro-4H-thieno[3,2-c]pyran-2-carboxamide]
1.5 to 10	< 0.01	Cc1cc(-c2ncnc3[nH]ccc23)ccc1CNC(=O)c1ccc(C(C)(C)C)cc1 [Example I-2, 4-(tert-butyl)-N-(2-methyl-4-(7H-pyrrolo[2,3-d]pyrimidin-4-yl)benzyl)benzamide]
0.5 to 1.5	< 0.01	Cc1cc(-c2ncnc3[nH]c(-c4cnn(C)c4)cc23)ccc1C(CO)NC(=O)c1cnc(C(C)(C)C)s1 (stereo not drawn) [Example I-31, 2-(tert-butyl)-N-(2-hydroxy-1-(2-methyl-4-(6-(1-methyl-1H-pyrazol-4-yl)-7H-pyrrolo[2,3-d]pyrimidin-4-yl)phenyl)ethyl)thiazole-5-carboxamide]
1.5 to 10	0.01 to 0.099	O=C(NCc1ccc(-c2ncnc3[nH]ccc23)cc1C(F)(F)F)c1nc2c(s1)CCCC2 [Example I-122, N-(4-(7H-pyrrolo[2,3-d]pyrimidin-4-yl)-2-(trifluoromethyl)benzyl)-4,5,6,7-tetrahydrobenzo[d]thiazole-2-carboxamide]
1.5 to 10	0.01 to 0.099	O=C(NC1CCCc2cc(-c3ncnc4[nH]ccc34)ccc21)c1cc2c(s1)CCCC2 (stereo not drawn) [Example I-16, N-(6-(7H-pyrrolo[2,3-d]pyrimidin-4-yl)-1,2,3,4-tetrahydronaphthalen-1-yl)-4,5,6,7-tetrahydrobenzo[b]thiophene-2-carboxamide]
1.5 to 10	< 0.01	O=C(N[C@H]1CCCc2cc(-c3ncnc4[nH]ccc34)ccc21)c1cc2c(s1)CCCC2 [Example I-89, (S)—N-(6-(7H-Pyrrolo[2,3-d]pyrimidin-4-yl)-1,2,3,4-tetrahydronaphthalen-1-yl)-4,5,6,7-tetrahydrobenzo[b]thiophene-2-carboxamide]
0.5 to 1.5	< 0.01	Cc1cc(-c2ncnc3cc(C4CCN(C)CC4)[nH]c23)ccc1CNC(=O)c1cnc(C(C)(C)C)s1 [Example I-25, 2-(tert-butyl)-N-(2-methyl-4-(6-(1-methylpiperidin-4-yl)-5H-pyrrolo[3,2-d]pyrimidin-4-yl)benzyl)thiazole-5-carboxamide]
< 0.5	< 0.01	Cc1cc(-c2ncnc3[nH]c(-c4cnn(C)c4)cc23)ccc1CNC(=O)c1cnc(C(C)(C)C)s1 [Example I-26, 2-(tert-butyl)-N-(2-methyl-4-(6-(1-methyl-1H-pyrazol-4-yl)-7H-pyrrolo[2,3-d]pyrimidin-4-yl)benzyl)thiazole-5-carboxamide]
< 0.5	< 0.01	Cc1cc(-c2ncnc3[nH]c(-c4ccc(C(=O)N5CCOCC5)cc4)cc23)ccc1CNC(=O)c1cnc(C(C)(C)C)s1 [Example I-20]
